{
  "source": "patent US20080063601A1",
  "about": "“Compositions and methods relating to polycystic kidney disease” (priority 2004, published 2008)",
  "key": {"HeLa cells [1]": {"tested_on": "HeLa cells", "experiment": "[3H]-triptolide saturation (specific) binding in HeLa cells", "details": "0-100 nM [3H]-triptolide 1 h, non-specific binding with 2 μM cold triptolide, read-out: [3H]-triptolide binding affinity (KD), specific binding", "description": "Based upon the data above, Applicant next sought to determine if triptolide binding was saturable and if more than one protein (or binding site) was being targeted. Determination of the [^3H]-triptolide binding affinity (KD) and the binding capacity per cell (Bmax) were calculated using a saturation plot. HeLa cells were cultured to 90% confluency and subsequently treated with 0-100 nM of [^3H]-triptolide for one hour. Non-specific binding was defined using 2 μM cold triptolide as competitor. Bmax was calculated to be 99±19 fmol triptolide bound/[…] of triptolide binding sites.\nSaturation binding assays were accomplished in HeLa cells adhered on 6-well plates in DMEM+10% FBS. All samples were at least 90% confluent at time of addition of triptolide. Non-specific binding of [^3H]-triptolide was assessed by the pre-incubation of 2 μM (non-labeled) triptolide for one hour. Following cold competition (or DMSO) 5, 10, 20, 50, or 100 nM of [^3H]-triptolide was added into the cultures for an additional one hour, and then cells were lysed and counted for binding activity."}, "[2]": {"experiment": "Dose finding / toxicity in pregnant C57B1/6 mice", "format": "in vivo", "description": "Triptolide has been previously studied in rodent models of tumor regression (Tengchaisri, et al., 1998, Cancer Lett 133, 169-175; Yang, et al., 2003, Mol Cancer Ther 2, 65-72), but it had not yet been tested in a system utilizing pregnant females. To first establish a potential therapeutic versus lethal concentration of drug delivery, pregnant C57B1/6 mice were treated with incremental concentrations of triptolide between 0.01-0.15 mg/kg/day i.p. injections. Toxicity was assessed as determined by resorption of all embryos or the preponderance of a large percentage of stillborns. With reference to these criteria, triptolide toxicity was determined to be most prominent at concentrations of 0.1 mg/kg/day or greater. […] Another experimental parameter involved the timing of the start of triptolide injections, since polycystin-2 has been implicated in left-right axis formation in the developing embryo at approximately E7.75 (McGrath, et al., 2003, Cell 114, 61-73; Pennekamp, et al., 2002, Curr Biol 12, 938-943). Applicants therefore chose E10.5 as the start of triptolide injections, in order to allow for a normal polycystin-2 mediated patterning event and still leave sufficient time to act on cyst formation during kidney organogenesis."}, "NFκB transactivation": {"tested_on": "NFκB transactivation", "experiment": "κB-luciferase reporter assay of TNF-α induced NFκB transactivation in HeLa cells", "format": "cell-based", "details": "for inhibition at 0.1 µM: Homo sapiens", "description": "Having established that triptolide induced cell death is dependent upon free calcium concentration, Applicant next determined whether this was also a requirement for the inhibition of NFκB transcription. HeLa cells were transiently transfected with the κB-luciferase reporter construct for 8 hours before being washed and then cultured in the presence or absence of calcium containing medium for 16 hours. Triptolide (100 nM) was pre-incubated with cells for 1 hour before addition of 15 ng/ml of TNF-α for 4 hours.\nAs an additional experiment, transcriptional activity was also assessed by site-directed calcium buffering. HeLa cells were co-transfected with the κB-luciferase plasmid as well as one of the following constructs: GFP empty vector, NES-PV-GFP, or NLS-PV-GFP and proper GFP localization was confirmed. […]\nNFκB transactivation was examined using the κB-luciferase reporter construct. […] Cells were assessed for NFκB driven luciferase expression after an additional five hours of incubation, at which time TNF-α had induced transcriptional activity by approximately 15-fold in control cells. […] The results thus far support a divergence of triptolide-mediated functions: the pathway regulating growth arrest/death is more sensitive to triptolide and calcium than the mechanism leading to transcriptional repression of NFκB.\nA triple κB promoter-Luciferase reporter construct was a gift of Sankar Ghosh (Yale University). […] The transfection efficiency of HeLa was determined to be 80-90%, and all samples were normalized to protein concentration. Luciferase assays were performed using the Firefly luciferase kit as per manufacturer's protocol (Promega) and results obtained on the Wallac Victor2 1420 Multilabel Counter (Perkin Elmer)."}, "HeLa cells [3]": {"tested_on": "HeLa cells", "experiment": "[3H]-triptolide competition binding in intact HeLa cells", "description": "To gain insight into triptolide's mechanism of action Applicant sought to determine its specific binding activity utilizing a system employing [^3H]-triptolide. In addition to competition with 1 μM or 10 μM unlabeled triptolide, Applicant also measured the binding affinities of triptolide analogs (FIG. 3A). These analogs have been previously described and differ structurally from triptolide in the hydrolysis of the 12,13 epoxide (2), and formation of the ketone at the C-14 hydroxyl (3) (FIG. 3A). […] The effective interaction of these analogs with a presumed triptolide binding entity led us to their use in subsequent experiments addressing the mode of triptolide's biological functions.\nLabeling studies were performed by the addition of approximately 30 nM [^3H]-triptolide directly into the culture media for one hour at 37° C. For cold competition studies, 1 μM triptolide was incubated with the cells for one hour before or after the addition of [^3H]-triptolide. Triptolide analog studies followed a similar protocol where concentrations used for competition were either 1 or 10 μM added before [^3H]-triptolide. Medium was removed and cells were washed 3× in cold PBS. Total cell lysates were prepared (150 mM NaCl, 50 mM Tris-HCl pH 7.4, 1 mM EDTA, 1% Triton X-100, and Complete™ protease inhibitors (Roche)) and protein was quantitated before measuring the [^3H]-triptolide binding activity via liquid scintillation."}},
  "note": "Read-outs that look alike come from different tables or passages of the source.",
  "data": [
    {"compound": "CC(C)[C@]12O[C@H]1[C@@H]1O[C@]13[C@]1(O[C@H]1C[C@H]1C4=C(CC[C@@]13C)C(=O)OC4)[C@@H]2O", "note": "[triptolide]", "values": [
      {"measurement": "Kd", "setting": "HeLa cells [1]", "result": "15.5 ± 0.8", "unit": "nM"},
      {"measurement": "adverse effects", "setting": "[2]; 0.07 mg/kg/day i.p.", "result": "no discernable adverse effects"},
      {"measurement": "MTD", "setting": "[2]; female, mouse, in vivo, ip, read-out: maximum tolerated dose", "result": 0.07, "unit": "mg/kg/day"},
      {"measurement": "dose at which toxicity (resorption of all embryos or large percentage of stillborns) was most prominent", "setting": "[2]; i.p., 0.01-0.15 mg/kg/day tested", "result": "≥ 0.1", "unit": "mg/kg/day"},
      {"measurement": "inhibition of TNF-α driven transcriptional activity of NFκB", "setting": "NFκB transactivation; 10 nM, 1 h pre-treatment + 5 h TNF-α", "result": "did not inhibit"},
      {"measurement": "luciferase induction remaining with compound + TNF-α", "setting": "NFκB transactivation; 10 nM, after 24 hours", "result": "> 20", "unit": "fold"},
      {"measurement": "inhibition of TNF-α driven transcriptional activity of NFκB", "setting": "NFκB transactivation; 25 nM, 1 h pre-treatment + 5 h TNF-α", "result": "did not inhibit"},
      {"measurement": "suppression of TNF-α driven NFκB activity", "setting": "NFκB transactivation; 50 nM, 1 h pre-treatment + 5 h TNF-α", "result": 20, "unit": "%"},
      {"measurement": "suppression of NFκB transactivation with site-directed calcium buffering", "setting": "NFκB transactivation; 100 nM, GFP vector, NES-PV-GFP or NLS-PV-GFP", "result": "retained the ability to suppress NFκB transactivation"},
      {"measurement": "inhibition of TNF-α induced NFκB transactivation", "setting": "NFκB transactivation; 100 nM, presence and absence of calcium", "result": "effectively inhibited"},
      {"measurement": "NFκB activity at higher concentration", "setting": "NFκB transactivation; 1 or 10 μM, 5 hours with TNF-α", "result": "attenuated further"},
      {"measurement": "inhibition at 0.1 µM", "setting": "NFκB transactivation; 0.1 μM, 5 hours with TNF-α, read-out: NFκB inhibition", "result": "> 60", "unit": "%"},
      {"measurement": "inhibition at 0.1 µM", "setting": "NFκB transactivation; 100 nM, 1 h pre-treatment + 5 h TNF-α, read-out: inhibition of TNF-α driven NFκB activity (average)", "result": 60, "unit": "%"},
      {"measurement": "nature of triptolide binding (out-competed by subsequent excess unlabeled triptolide)", "setting": "HeLa cells [3]; 1 μM cold triptolide after [3H]-triptolide", "result": "reversible"},
      {"measurement": "displacement of / competition for [3H]-triptolide binding", "setting": "HeLa cells [3]; 1 or 10 μM unlabeled competitor for 1 h before approx. 30 nM [3H]-triptolide for 1 h", "result": "significantly competed"}
    ]}
  ]
}
